Measurements published in paper PMC12607897, “Inhibition of HIV-1 replication by primer RNA packaging inhibitors” (mBio, 2025).

Tests used:
[1] = test system: HIV-1 NLENG1-IRES-GFP (NL4-3-GFP) virus in MT4 cells; assay: ex vivo HIV-1 replication assay, GFP expression by flow cytometry in infected MT4 cells (multiple cycles); type: cell-based; settings: drug 10 µM, added 36–48 h after infection, read 72 h later
Experimental: To test this hypothesis, azelastine, lacidipine, and cilnidipine were used in an ex vivo assay to determine their effect on HIV-1 proliferation. MT4 cells were infected with NLENG1-IRES-GFP, a virus that allows for multiple cycles of infection, and the molecules were added to the medium 36–48 h after infection, before the completion of the first round of viral infection; 72 h after the drugs were added, when two rounds of HIV-1 infection were underway, the level of GFP fluorescence was determined by flow cytometry, as a marker of HIV-1 infection (Fig. 3, left panel). HIV-1 replication was inhibited in a dose-dependent manner. […]. […] At the same time, no drug toxicity was observed, as determined by the MTT assay (Fig. 3, right panel). […] The selectivity index (SI) ([24]) of the three drugs, defined as the ratio of 50% cytotoxic concentration (CC50; >20 µM) to 50% inhibitory concentration (IC50; ~5 µM), >4.
Fig 3 Effect of the inhibitors on HIV-1 replication and cell toxicity. MT4 cells were infected with NL4-3-GFP virus. Two days after infection, inhibitors were added to the culture medium at final concentrations of 1, 3.3, or 10 µM. The final concentration of DMSO was 0.1%. Five days after infection, GFP expression was quantified by flow cytometry, and cell viability was determined by the MTT assay. NInf corresponds to non-infected cells. Six independent experiments were performed, and standard deviations are shown. A Student t-test was used to determine statistical significance compared with the control experiment with DMSO (*: P < 0.001; **: P < 0.0001).
MT4 cell line ([26]) was maintained in RPMI 1640. HEK293T and HeLa-P4 cells ([27]) were maintained in Dulbecco’s modified Eagle medium (DMEM). All media were supplemented with Glutamax and with 10% heat-inactivated fetal calf serum (Hyclone) and 1% penicillin/streptomycin (100 units/mL) (Gibco). All media were purchased from Gibco (Life Technologies Co.). All cell lines used here were incubated at 37 °C, under 5% CO2 atmosphere. HIV-1 stocks were prepared by calcium phosphate-mediated transfection of HEK293T cells, as previously described ([22]), with shuttle vector plasmids encoding HIV-1 NL4-3 (GenBank: AF324493.1) or NLENG1-IRES-GFP ([28]). The latter vector comes from the HIV NL4-3 strain and contains a gfp-IRES-nef cassette at the nef locus. […].
For NL4-3-GFP vectors, viral infection is followed by GFP expression (i.e., the percentage and geometric mean fluorescence intensity [MFI] of GFP^+ cells). Infectivity was estimated by flow cytometry using a FACS Celesta flow cytometer (BD Biosciences). Toxicity is also assessed by flow cytometry (side and forward scatter).

mLysRS = mLysRS (Homo sapiens, UniProt Q15046); assay: tRNA aminoacylation assay; type: biochemical; settings: drug added up to 1 mM
Chain of mLysRS (Q15046 31-625 isoform Q15046-2): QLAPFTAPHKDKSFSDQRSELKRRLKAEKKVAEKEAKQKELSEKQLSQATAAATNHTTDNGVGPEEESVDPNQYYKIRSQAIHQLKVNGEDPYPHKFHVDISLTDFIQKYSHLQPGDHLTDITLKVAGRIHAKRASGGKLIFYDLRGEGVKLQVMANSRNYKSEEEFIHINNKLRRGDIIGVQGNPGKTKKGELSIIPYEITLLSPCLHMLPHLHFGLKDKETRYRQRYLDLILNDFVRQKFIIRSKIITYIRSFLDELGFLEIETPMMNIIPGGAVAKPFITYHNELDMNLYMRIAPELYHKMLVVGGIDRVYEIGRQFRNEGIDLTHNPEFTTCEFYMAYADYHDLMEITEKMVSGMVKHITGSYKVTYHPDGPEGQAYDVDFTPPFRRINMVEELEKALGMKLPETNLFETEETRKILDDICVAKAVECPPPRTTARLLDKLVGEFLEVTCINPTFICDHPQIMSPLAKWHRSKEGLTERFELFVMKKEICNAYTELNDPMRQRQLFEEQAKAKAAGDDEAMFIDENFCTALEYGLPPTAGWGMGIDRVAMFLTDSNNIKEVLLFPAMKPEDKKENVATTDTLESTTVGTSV
Experimental: Initial rates of tRNA aminoacylation were measured at 25°C in 0.1 mL of 20 mM Imidazole-HCl buffer (pH 7.5), 100 mM KCl, 0.5 mM DTT, 12 mM MgCl2, 2 mM ATP, 180 µM ^14C-labeled lysine (NEN; 16.66 Ci/mol), and saturating amounts of global yeast tRNA ([30]). The incubation mixture contained catalytic amounts (2 nM) of mLysRS appropriately diluted in 10 mM Tris-HCl (pH 7.5), 10 mM 2-mercaptoethanol, containing bovine serum albumin at 4 mg/mL. Inhibitors were added at final concentrations ranging from 3.9 to 1,000 µM. One unit of activity is the amount of enzyme producing 1 nmol of lysine-tRNA^Lys/min, at 25°C.
Fig. S5. Effect of inhibitors on mLysRS activity. The tRNA-aminoacylation activity of mLysRS
was determined in the presence of increasing concentrations of the drugs. Two independent
experiments were performed and standard deviations are shown.
Fig. 6. Raw data of quantification of minus-strand strong stop viral DNA and viral RNA by
digital PCR from viruses recovered after 72 h incubation in the presence of 10 µM of the drugs.

[2] = test system: HIV-1 NL4-3 virus particles; assay: digital PCR / RT-dPCR of minus-strand strong stop cDNA and viral RNA in particles; type: cell-based; settings: 10 µM drug, 72 and 96 h after infection
Description: We used digital RT-PCR and digital PCR to determine the viral mRNA and minus-strand strong stop viral cDNA content of the particles (Fig. 7; Fig. S6). The amount of early viral cDNA produced in the HIV-1 particles is a measure of the efficiency of the initiation step of reverse transcription, which requires the packaging of tRNA3^Lys at the budding step, the primer for cDNA synthesis.
Fig 7 Effect of drugs on viral synthesis of minus-strand strong stop cDNA. Viruses were harvested from the culture medium after 72 (red) or 96 h (blue) of infection of MT4 cells with NL4-3 viruses. Minus-strand strong stop viral DNA and viral RNA (vRNA) were quantified by digital PCR and RT-dPCR, respectively. Viruses were harvested from cultures grown in the presence of 10 µM of azelastine (Aze), lacidipine (Lac), or cilnidipine (Cil), or H2O or DMSO as controls. Values and the associated standard deviations (n = 3) are expressed as the ratios of the values obtained for the H2O or DMSO controls. […].
MT4 cells (2 × 10^6 cells) were infected with the NL4-3 viruses. After 4–5 h of infection at 37°C, cells were twice washed with PBS, incubated 5 min at 37°C in 0.25% trypsin-EDTA solution (Gibco) to eliminate viruses remaining in the medium, incubated 5 min at 37°C in complete RPMI medium, twice washed with PBS, resuspended in RPMI medium at a cell density of 200 × 10^3 cells/mL and incubated with 10 µM of azelastine (25 mM stock solution in H20), or lacidipine and cilnidipine (25 mM stock solution in DMSO). A second aliquot of the inhibitors was added to the culture medium 48 h after infection. […] All RNA and DNA quantifications were performed by digital PCR and RT-qPCR on a QIAcuity instrument (QIAGEN) using 26K 24-well nanoplates and the QIAcuity Probe PCR and One-Step Viral RT-PCR kits. Primers and probes were 5′-[…], 5′-[…], and 5′-[…] for the quantification of minus-strand strong-stop cDNA, and 5′-[…], 5′-[…], and 5′-[…] CGT for viral RNA quantification.

CN1CCCC(n2nc(Cc3ccc(Cl)cc3)c3ccccc3c2=O)CC1 (stereo not drawn) [azelastine]
GFP fluorescence, % of the value observed when DMSO was added alone [1]: 15.2% | inhibition of Lysyl-tRNA^Lys synthesis (mLysRS): did not inhibit | minus-strand strong stop cDNA in viruses, normalized to viral RNA [2]: significantly reduced
